Where “and” joins values, the source holds several entries; their conditions need not be identical. Identical values can stand only once. Like-named read-outs stand apart in the source and are kept apart here.

In experiment [1] the target is T1, SFRP-1 (Homo sapiens, UniProt Q8N474).
T1 sequence (Q8N474 32-314): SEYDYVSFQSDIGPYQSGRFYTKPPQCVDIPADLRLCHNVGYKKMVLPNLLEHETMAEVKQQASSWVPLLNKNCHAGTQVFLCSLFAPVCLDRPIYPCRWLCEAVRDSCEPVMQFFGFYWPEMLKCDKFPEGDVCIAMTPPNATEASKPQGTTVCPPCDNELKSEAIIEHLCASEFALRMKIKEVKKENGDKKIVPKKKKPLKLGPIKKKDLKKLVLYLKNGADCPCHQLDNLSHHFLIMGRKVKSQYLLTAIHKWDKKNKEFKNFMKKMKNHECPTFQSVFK
Briefly: Cell-based assay for in vitro measurement of SFRP-1/SARP2 antagonist activity (U2OS cells co-transfected with 16x TCF-tk-Luciferase reporter, Wnt and hSFRP-1).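 Note: U2OS cells co-transfected with a TCF-tk luciferase reporter, a Wnt vector, hSFRP-1 or empty vector and CMV-βgal, luciferase luminescence read in cell lysates alongside βgal activity.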 Conditions: U2OS, single dose, luciferase reporter. On the technique in general: A reporter such as luciferase makes a cellular process visible.

For experiment [2], the target named is T1, SFRP-1. Briefly: Fluorescence polarization binding assay (competitive displacement of a probe compound from SFRP-1).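 Note: test compound competes with a fluorescent probe held by SFRP-1, seen as a drop in probe anisotropy after incubation in darkness, with anisotropy as function of rising compound dose.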 Conditions: fluorescence anisotropy, 45 nM SFRP-1, 20 nM probe. (In general: Polarisation of emitted light reports the rotation of a fluorescent probe.)
The mark [3] stands for this setting: read-out: Fold Induction with SFRP-1, Conc 15 μM, fold induction over SFRP-1 control, cells with SFRP-1.
Setting [4] is: read-out: Fold Induction without SFRP-1, Conc 15 μM, cells without SFRP-1 (specificity control).

By IC50 is commonly meant the midpoint of a concentration-inhibition curve. High values mean lower potency, low ones higher potency. `CNc1ccc(S(=O)(=O)c2ccc(C(C)C)c(S(=O)(=O)NC3CCN(C(=O)OC(C)(C)C)CC3)c2)cc1` [Example 528, tert-butyl 4-{[(2-isopropyl-5-{[4-(methylamino)phenyl]sulfonyl}phenyl)sulfonyl]amino}piperidine-1-carboxylate]: the fold induction at 15 µM at SFRP-1 [1] (setting [3]) was 2.5; at SFRP-1 [1] (setting [4]), 1.1. Also, at SFRP-1 [2], the IC50 turned out to be 0.3 µM.

Regarding `CC(=O)N1CCC(NS(=O)(=O)c2cc(S(=O)(=O)c3ccc(F)cc3)ccc2C(C)C)CC1` [Example 529, N-(1-acetylpiperidin-4-yl)-5-[(4-fluorophenyl)sulfonyl]-2-isopropylbenzenesulfonamide], the fold induction at 15 µM worked out at 2.8 on SFRP-1 [1] (setting [3]) and 1 on SFRP-1 [1] (setting [4]). In addition, the IC50 on SFRP-1 [2] worked out at 0.5 µM.

Consider `CC(C)c1ccc(S(=O)(=O)c2ccc(F)cc2)cc1S(=O)(=O)NC1CCN(C(=O)C2CC2)CC1` [Example 530, N-[1-(cyclopropylcarbonyl)piperidin-4-yl]-5-[(4-fluorophenyl)sulfonyl]-2-isopropylbenzenesulfonamide], for which the fold induction at 15 µM on SFRP-1 [1] (setting [3]) came out at 3; on SFRP-1 [1] (setting [4]), 1. For the same compound, the IC50 on SFRP-1 [2] came to 0.7 µM.

In the case of `CC(C)c1ccc(S(=O)(=O)c2ccc(F)cc2)cc1S(=O)(=O)NC1CCN(C(=O)c2ccc(C#N)cc2)CC1` [Example 531, N-[1-(4-cyanobenzoyl)piperidin-4-yl]-5-[(4-fluorophenyl)sulfonyl]-2-isopropylbenzenesulfonamide], the fold induction at 15 µM worked out at 2.5 on SFRP-1 [1] (setting [3]) and 1.1 on SFRP-1 [1] (setting [4]). For the same compound, the IC50 on SFRP-1 [2] came out at 0.4 µM.

Take `CC(C)c1ccc(S(=O)(=O)c2ccc(F)cc2)cc1S(=O)(=O)NCC1CCCO1` (stereo not drawn) [Example 532, 5-[(4-fluorophenyl)sulfonyl]-2-isopropyl-N-(tetrahydrofuran-2-ylmethyl)benzenesulfonamide]: the fold induction at 15 µM is 2.8 on SFRP-1 [1] (setting [3]) and 1.1 on SFRP-1 [1] (setting [4]). Moreover, on SFRP-1 [2], the IC50 stood at 4 µM.

Regarding `CC(C)c1ccc(S(=O)(=O)c2ccc(F)cc2)cc1S(=O)(=O)NCCc1ccncc1` [Example 533, 5-[(4-fluorophenyl)sulfonyl]-2-isopropyl-N-(2-pyridin-4-ylethyl)benzenesulfonamide], the fold induction at 15 µM on SFRP-1 [1] (setting [3]) came out at 3.7; on SFRP-1 [1] (setting [4]) it was 1.1. The same compound returned an IC50 on SFRP-1 [2] of 0.5 µM.

As for `CC(C)c1ccc(S(=O)(=O)c2ccc(F)cc2)cc1S(=O)(=O)NCCc1cccnc1` [Example 534, 5-[(4-fluorophenyl)sulfonyl]-2-isopropyl-N-(2-pyridin-3-ylethyl)benzenesulfonamide], the figures for the fold induction at 15 µM on SFRP-1 [1] (setting [3]) and on SFRP-1 [1] (setting [4]) were 4 and 1.1, respectively. On SFRP-1 [2], the IC50 is 0.2 µM and 0.3 µM.

In the case of `CC(C)c1ccc(S(=O)(=O)c2ccc(NCCC#N)cc2)cc1S(=O)(=O)NC1CCOCC1` [Example 535, 5-({4-[(2-cyanoethyl)amino]phenyl}sulfonyl)-2-isopropyl-N-(tetrahydro-2H-pyran-4-yl)benzenesulfonamide], the fold induction at 15 µM at SFRP-1 [1] (setting [3]) is 3.8; at SFRP-1 [1] (setting [4]), 1.2. Also, on SFRP-1 [2], the 50% inhibitory concentration (IC50) was 0.4 µM.

For the compound `CC(C)c1ccc(S(=O)(=O)c2ccc(NCCC#N)cc2)cc1S(=O)(=O)NCC1CCOCC1` [Example 536, 5-({4-[(2-cyanoethyl)amino]phenyl}sulfonyl)-2-isopropyl-N-(tetrahydro-2H-pyran-4-ylmethyl)benzenesulfonamide], the fold induction at 15 µM came out at 3 on SFRP-1 [1] (setting [3]) and 1.2 on SFRP-1 [1] (setting [4]). Also, the IC50 on SFRP-1 [2] was 0.4 µM.

Consider `CC(C)c1ccc(S(=O)(=O)c2ccc(NCCC#N)cc2)cc1S(=O)(=O)NCCC1CCOCC1` [Example 537, 5-({4-[(2-cyanoethyl)amino]phenyl}sulfonyl)-2-isopropyl-N-[2-(tetrahydro-2H-pyran-4-yl)ethyl]benzenesulfonamide], for which the fold induction at 15 µM at SFRP-1 [1] (setting [3]) stood at 2.9; at SFRP-1 [1] (setting [4]) it was 1.1. Besides, at SFRP-1 [2], the IC50 amounted to 0.7 µM.

The values are drawn from patent US20060276464A1, “Diarylsulfone sulfonamides and use thereof” (Wyeth, priority 2005, published 2006).
